Measurements published in PubChem BioAssay (NCI).
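Interpolation was linear, between the two tested concentrations surrounding the appropriate level; five concentrations were tested over 48 hours in 96-well plates. The concentration for full growth arrest is given as TGI.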 Where a SMILES comes first, the peptide text is derived from it. [ ]: non-standard residue; d: D form. The star is where a group is joined. ξ: configuration not given here. Propanoyl(3-(4-MeO-Ph)) = COc1ccc(CCC(=O)*)cc1; Thr(3ξ) = CC(O)[C@H](N)C(=O)O; dNMeL = CN[C@H](CC(C)C)C(=O)O; OBn = c1ccc(CO*)cc1; ξLac = CC(O)C(=O)O

Tests used:
Assay in all cases: NCI anticancer screen, dose series, 48 h
[1] = tested on: HS 578T breast
[2] = tested on: OVCAR-8 ovarian
[3] = tested on: SK-MEL-5 melanoma
[4] = tested on: HCC-2998 colon
[5] = tested on: K-562 leukemia
[6] = tested on: UACC-257 melanoma
[7] = tested on: SR leukemia
[8] = tested on: 786-0 renal
[9] = tested on: SW-620 colon
[10] = tested on: CCRF-CEM leukemia

SMILES | TGI [1] [µM] | TGI [2] [µM] | TGI [3] [µM] | TGI [4] [µM] | TGI [5] [µM] | TGI [6] [µM] | TGI [7] [µM] | TGI [8] [µM] | TGI [9] [µM] | TGI [10] [µM]
CCOP(=O)(OCC)/C(C#N)=C/c1cccn1N(C)C | > 100 | > 100 | > 100 | > 100 | > 100 | > 100 | > 100 | > 100 | > 100 | > 100
O=c1[nH]c(Nc2cccc(Br)c2)nc2nc[nH]c12 | > 100 | > 100 | > 100 | > 100 | > 100 | > 100 | > 100 | > 100 | > 100 | > 100
CSc1nc(O)c(/C=C2\C=Nc3ccccc32)[nH]1 | > 100 | > 100 | > 100 | 90.6 | > 100 | > 100 | > 100 | > 100 | > 100 | > 100
O=C(/C=C/c1cccs1)c1cccc(C(=O)/C=C/c2cccs2)n1 | > 94.8 | 19.6 | > 100 | > 100 | > 100 | > 100 | > 24.6 | 38.2 | 15.6 | 8.51
CCCC#CC(O)(C(=O)OC1CCN(C)CC1)C1CCCCC1 (centres undefined) | > 100 | > 100 | > 100 | > 100 | > 100 | > 100 | > 100 | > 100 | > 100 | > 100
O=C1OC(C2OC(=O)c3cc(O)c(O)c(O)c3-c3c(O)c(O)c4oc(=O)c5c(c(O)c(O)c6oc(=O)c3c4c65)-c3c(cc(O)c(O)c3O)C(=O)OCC2O)C2OC(=O)c3c(c(O)c(O)c(O)c3[C@H]2O)-c2c1cc(O)c(O)c2O (some centres undefined) | > 100 | 47.7 | 33.9 | > 100 | 42.5 | > 100 | 43.4 | 44.9 | 48.9 | 37.6
O=C(CCc1ccccc1CO)NCCc1ccccc1 | > 100 | > 100 | > 100 | > 100 | > 100 | > 100 | > 100 | > 100 | > 100 | > 100
COc1ccc(C(C#N)NCCCCCCNC(C#N)c2ccc(OC)cc2)cc1 (centres undefined) | > 100 | > 100 | > 100 | > 100 | > 100 | > 100 | > 100 | > 100 | > 100 | > 100
CN(C)CCNC(=O)c1ccc(NCCCN(C)CCCNc2ccc(C(=O)NCCN(C)C)c3[nH]c4ccc([N+](=O)[O-])cc4c(=O)c23)c2c(=O)c3cc([N+](=O)[O-])ccc3[nH]c12 | > 100 | 1.3 | 1.14 | 0.254 | 1.83 | 1.62 | 1.91 | 1.14 | 0.557 | 0.145
CC(=O)O[C@H]1C(=O)[C@@]2(C)[C@H]([C@H](OC(=O)c3ccccc3)[C@]3(O)C[C@H](OC(=O)[C@H](O)[C@@H](NC(=O)CC(C)C)c4ccccc4)C(C)=C1C3(C)C)[C@]1(OC(C)=O)CO[C@@H]1C[C@@H]2O | 0.00822 | > 3.24 | > 10 | 0.0636 | > 10 | > 10 | 0.138 | > 10 | > 10 | > 10
CC1=C(C(=O)NCC(C)O)CC(C(=O)NCC(C)O)=C(C)N1 (centres undefined) | > 100 | > 100 | > 100 | > 100 | > 100 | > 100 | > 100 | > 100 | > 100 | > 100
Cc1ccc([N+](=O)[O-])cc1S(=O)(=O)Nc1ccc(C2=NNC(c3cccs3)C2)cc1 (centres undefined) | > 100 | > 100 | 46.3 | > 100 | > 100 | > 100 | 78.8 | > 100 | > 100 | > 100
O[C@H]1[C@H](O)[C@H](O)CN2CCC[C@@H](O)[C@H]12 | > 100 | > 100 | > 100 | > 100 | > 100 | > 100 | > 100 | > 100 | > 100 | > 100
CC1(C)C[C@H](O)[C@H](O)[C@]23C(=O)O[C@H](O)[C@H]2C(C=O)=CC[C@@H]13 | > 100 | > 100 | > 100 | > 100 | > 100 | > 100 | > 100 | > 100 | > 100 | > 100
NCCCc1c(-c2ccccc2)nc(N)[nH]c1=O | > 100 | > 100 | > 100 | > 100 | > 100 | > 100 | > 100 | > 100 | > 100 | > 100
COc1ccc(CCC(=O)OC(C)[C@H](NC(=O)[C@@H](CC(C)C)N(C)C(=O)[C@@H]2CCCN2C(=O)C(C)O)C(=O)OCc2ccccc2)cc1 (some centres undefined) (H-[ξLac]P[dNMeL][Thr(3ξ)](Propanoyl(3-(4-MeO-Ph)))-OBn) | 27.8 | > 100 | 28.8 | > 100 | 74.5 | 35.6 | > 100 | > 100 | > 100 | 68.9
Cc1ccc(/C=N/Nc2nncc3ccccc23)s1 | > 100 | > 100 | > 100 | > 100 | > 100 | > 100 | > 100 | > 95.1 | > 100 | > 100
CC(=O)O[C@H]1CC[C@@]2(C)C(=CC[C@@H]3[C@@H]2CC[C@]2(C)c4c(cc(C#N)c(=N)n4C(C)=O)C[C@@H]32)C1 | 59.6 | 37.6 | 29.7 | 41.9 | > 100 | 33.9 | 61.2 | 58.3 | 47.5 | 23.2
O=c1[nH]c2ccc(CC(=S)N3CCN(c4ccccc4)CC3)cc2o1 | > 100 | > 100 | > 100 | > 100 | > 100 | > 100 | > 100 | > 100 | > 100 | > 100
COc1ccc(CCc2ccc(O)c(C(=O)O)c2)cc1OC | > 100 | > 100 | > 100 | > 100 | > 100 | > 100 | > 100 | > 100 | – | > 100
